“Also recorded” adds a separate entry of the source.

Data set [1] relates to B. improvisus. The experiment in a line: Larval bioassay: settlement and mortality of barnacle cyprids. It is filed as in vivo, Balanus improvisus. The method, then:
(§1) The brood stock of adult barnacles (B. improvisus, Darwin 1854) were allowed to settle on plexiglass panels in the sea on a raft outside Tjärnö Marine Biological Laboratory (58° 53′ N, 11° 8′ E). Cleaned from epiphytes they were brought to the laboratory and immediately placed in trays with running seawater (salinity […]). When regularly fed, with nauplii of Artemia salina, B. improvisus will spawn throughout the year. For larval rearing we used the method according to Berntsson et al., described in “Reduction of barnacle recruitment on micro-textured surfaces: Analysis of effective topographic characteristics and evaluation of skin friction”, Biofouling 16, 245-261. The experiment for the evaluation of the effect on settlement and mortality was performed using polystyrene Petri dishes (Ø48 mm) to which 10 ml of the peptide dissolved to different concentrations in filtered seawater (0.2 μm, 32±1%) was added. Competent cyprids (20±2 ind.) were added to each dish in four replicates and dishes with filtered seawater served as controls. Dishes were maintained for 3-4 days in room temperature after which they were examined under a stereo microscope for attached and metamorphosed individuals and also, for dead cyprids.
Results are reported as means±standard error and using 1-factor analysis of variance (ANOVA).

The subject of data set [2] is B. improvisus. The experiment in a line: Reversibility test: cyprids moved to fresh seawater. It is filed as in vivo, Balanus improvisus. The note with it: cyprids from 2.5 μM moved to fresh sea water; five days. Here is the method: as §1
Half of the number of cyprids in each petri dish incubated at the highest tested concentration, 2.5 μM, were moved to a petri dish containing 10 ml of fresh seawater. […]

In the next data set the test system is Helicoverpa punctigera. To be noted: feeding trial, cited from earlier work.

As to “cyclo(VWIPCISSAIGCSCKSKVCYRNGIPCGESC) (head-to-tail cyclic) [cycloviolacin O2]”, the settlement with B. improvisus [1] (0.0025 μM (lowest tested concentration), 3-4 days, control 67±3%) was determined as 68±3%; in the data set with B. improvisus [1] (0.025 μM, 3-4 days), 21±0.5%. Also, in the data set with B. improvisus [1] (0.25 μM, 3-4 days), the inhibition of settlement entry was “complete inhibition of settlement; also recorded: complete inhibition of fouling”. Also, the “mortality compared to the control” value in the data set with B. improvisus [1] (all tested concentrations up to 2.5 μM, control saltwater only) is reported as “No one of the tested concentrations showed an increase in mortality; also recorded: No increase in mortality could be detected”. Also, the “mortality in reversibility test” value in the data set with B. improvisus [2] was “No increase in mortality was observed”.
As for “kalata B1: cyclotide with potent insecticidal activities reported by Jennings and coworkers (cyclo(GLPVCGETCVGGTCNTPGCTCSWPVCTRN); not fully specified (bridges); cysteine pairing not given here; UniProt P56254 89-117, looked up)”, the “mortality of insect larvae” value in the data set with Helicoverpa punctigera (over time) was “increase in mortality over time”. Moreover, the “growth and development of the insect larvae” value in the data set with Helicoverpa punctigera is “greatly affected”.

The values above are taken from patent US8168747B2, “On-growth inhibiting compounds” (Viogard AB, priority 2002, dated 2012).
